≈ marks a conversion by molar mass, not a printed value.
Experiments:
Assay in all cases: organism not typed
L. bozemanii = assay type: cell-based
L. domoffli = assay type: cell-based, L. dumoffii
L. wadsworthii = assay type: cell-based
L. longbeacheae = assay type: cell-based

Compound: C=CC(C)(C)c1cc(/C=C/C(=O)c2ccc(O)cc2)c(OC)cc1O [Licochalcone A, licochalcone A]
- MIC (L. bozemanii): 2 µg/mL (≈ 5.91 µM)
- MIC (L. domoffli): 2 µg/mL (≈ 5.91 µM)
- MIC (L. wadsworthii): 2 µg/mL (≈ 5.91 µM)
- MIC (L. longbeacheae): 1 µg/mL (≈ 2.96 µM)

From patent US6603046B1, “Bis-aromatic a,β-unsaturated ketones” (Lica Pharmaceuticals A/S, priority 1992, dated 2003)
